Experimental data reported in patent publication US20100256152A1, “NOVEL PHARMACEUTICAL COMPOSITION FOR TREATMENT OF SCHIZOPHRENIA” (ASTELLAS PHARMA INC., priority 2009, published 2010).
Where a name gives a salt, the structure may show the parent alone.

Experiments:
BEC1 potassium channel = molecular target: T1, BEC1 potassium channel (Homo sapiens, UniProt Q9ULD8); assay: BEC1 inhibitory activity, 86Rb ion release from BEC1 expressing cells; assay type: cell-based; conditions: BEC1 stably expressing CHO (dhfr-deficient) cells, 100 mM KCl stimulation, 86Rb release; as free form; read-out: IC50 (μM) (Example 1)
T1 construct: expressed in transfected cells
T1 sequence (Q9ULD8 1-1083): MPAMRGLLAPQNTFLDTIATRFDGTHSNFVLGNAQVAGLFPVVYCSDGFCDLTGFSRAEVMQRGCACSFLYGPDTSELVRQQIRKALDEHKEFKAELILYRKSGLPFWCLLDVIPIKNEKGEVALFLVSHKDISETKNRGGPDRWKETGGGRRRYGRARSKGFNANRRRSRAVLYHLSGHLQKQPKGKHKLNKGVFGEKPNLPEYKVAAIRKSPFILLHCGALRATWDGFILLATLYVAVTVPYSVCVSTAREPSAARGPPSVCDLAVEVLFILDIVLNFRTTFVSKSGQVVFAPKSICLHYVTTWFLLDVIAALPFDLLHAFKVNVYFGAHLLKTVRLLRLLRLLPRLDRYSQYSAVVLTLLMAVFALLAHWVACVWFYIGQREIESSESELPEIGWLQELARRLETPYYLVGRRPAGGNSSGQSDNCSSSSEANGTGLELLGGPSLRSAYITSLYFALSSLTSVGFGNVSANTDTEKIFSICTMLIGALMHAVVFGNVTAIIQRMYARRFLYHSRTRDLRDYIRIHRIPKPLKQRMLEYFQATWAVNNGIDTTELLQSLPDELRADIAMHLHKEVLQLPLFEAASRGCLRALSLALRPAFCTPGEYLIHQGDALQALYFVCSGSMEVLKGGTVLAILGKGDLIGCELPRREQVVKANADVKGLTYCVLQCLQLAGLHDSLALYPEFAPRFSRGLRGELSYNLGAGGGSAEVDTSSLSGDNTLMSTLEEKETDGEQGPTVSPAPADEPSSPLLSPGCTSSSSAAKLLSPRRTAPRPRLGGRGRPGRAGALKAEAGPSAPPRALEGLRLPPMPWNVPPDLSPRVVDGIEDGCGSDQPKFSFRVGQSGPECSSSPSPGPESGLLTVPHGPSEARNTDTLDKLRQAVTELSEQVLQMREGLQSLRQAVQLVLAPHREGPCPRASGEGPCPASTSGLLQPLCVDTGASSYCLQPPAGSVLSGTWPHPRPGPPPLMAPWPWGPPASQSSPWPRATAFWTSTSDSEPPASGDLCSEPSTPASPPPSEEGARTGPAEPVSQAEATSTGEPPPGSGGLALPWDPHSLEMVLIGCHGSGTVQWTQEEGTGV
Experimental: Method for measuring BEC1 inhibitory activity of compound utilizing 86Rb ion release amount as index
The channel activity of BEC1 was measured according to the method described in U.S. Pat. No. 6,326,168 or U.S. Pat. No. 7,375,222, herein incorporated by reference, utilizing the release of the ions of radioactive isotope 86Rb from BEC1 expressing cells as an index. Specifically, when BEC1 expressing cells which had taken in 86Rb ions were stimulated with 100 mM KCl, the radioactivity released from the same cells was designated as the channel activity of BEC1. 86Rb ions were incorporated into cells by culturing (3 hours, 37° C.) BEC1 stably expressing cells in the presence of 86RbCl (0.5 μCi/ml), and the unincorporated 86Rb ions were removed by washing the cells three times with HEPES buffered physiological saline (pH 7.4, 2.5 mM KCl). The same cells were incubated for 15 minutes at room temperature in the presence of a DMSO solution containing the test compound and HEPES buffered physiological saline, and then were further incubated for 5 minutes at room temperature in the presence of a 100 mM KCl-containing HEPES buffer solution (pH 7.4) containing the same compound. The extracellular fluid was recovered, and then the remaining cells were lysed in 0.1 N NaOH and recovered. The Cherenkov radioactivities of the extracellular fluid and the cell lysate were respectively measured, and the sum was designated as the total radioactivity. The release amount of 86Rb ions was expressed as the percentage of the radioactivity of the extracellular fluid with respect to the total radiation activity. The value obtained in the presence of the compound was designated as a test value, the value obtained in the absence of the compound was designated as a control value, and the value obtained when the cells were not stimulated with 100 mM KCl was designated as a blank value. […] In addition, as for the BEC1 expressing cells, BEC1 stably expressing cells produced according to the method described in U.S. Pat. No. 6,326,168 or U.S. Pat. No. 7,375,222, herein incorporated by reference, using a dihydrofolate reductase (dhfr)-deficient strain of Chinese Hamster ovary cells, were used.

[1] = test system: methamphetamine induced hyperlocomotion; assay: Methamphetamine induced hyperlocomotion model; assay type: in vivo, male ddY mouse; conditions: smallest oral dose giving significantly small activity vs solvent group; mouse; as free form
Experimental: Verification of the therapeutic effect on schizophrenia was carried out using a methamphetamine induced hyperlocomotion model. Methamphetamine is a psychostimulant, and is known to cause symptoms that are similar to schizophrenia by increasing the transmission in the dopaminergic neurons. The abnormal behavior produced when methamphetamine is administered to an animal is generally used as a screening method for a therapeutic drug for schizophrenia (Oka et al., 1993, J. Pharmacol. Exp. Ther., 264:158-165, herein incorporated by reference). That is, a male ddY mouse was placed in an activity monitoring apparatus, and after 30 minutes, methamphetamine was administered. After administering methamphetamine, the mouse was immediately returned to the monitoring apparatus, and the activity for one hour from immediately after the return was measured. For the measurement of the activity, a Supermex sensor manufactured by Muromachi Kikai Co., Ltd. was used. […] The solvent used was a 0.5% aqueous solution of methylcellulose. The statistical analysis was carried out between the solvent administered group and the drug administered groups, using Dunnett's test.
The test compounds (1) to (5) all suppressed methamphetamine induced hyperlocomotion.

[2] = test system: phencyclidine induced prolonged immobility; assay: Phencyclidine induced prolonged immobility model (forced swimming test); assay type: in vivo, male ddY mouse; conditions: mouse; for phencyclidine induced prolonged immobility improving action (in words): oral administration; for Minimum effective dose (mg/kg p.o.) (Example 3): smallest oral dose giving significantly short immobility time vs solvent group, 1 h after administration, as free form
Experimental: Verification of the therapeutic effect on schizophrenia was carried out using a phencyclidine induced prolonged immobility model. Phencyclidine is a non-competitive antagonist of the N-methyl-D-aspartate receptor, a type of glutamate receptor, and abuse of this agent causes development of psychotic symptoms indistinguishable from those of schizophrenia. […] Forced swimming test is used as a screening assay for antidepressants, because immobility in this test is thought to reflect some aspect of depression such as lowering of motivation. Negative symptoms of schizophrenia also includes similar aspects, we could evaluate the efficacy of drugs for negative symptoms, such as apathy, using this test. Briefly, a male ddY mouse was gently placed in a cylindrical pool, and activity was measured for 3 min with SCANET (MV20-LAN, MELQUEST). Afterward immobility time was calculated with the SCANET file integrating software. Two days later, Mice were anesthetized with sodium pentobarbital. The Osmotic mini pumps (Alzet model 1002, DURECT Corporation) were subcutaneously implanted to mice. The pump infused saline or phencyclidine 1.2 mg/day/mouse with pumping rate of 0.25 μL/hour. Fourteen days after implantation, a test compound was administered to mice and an hour after administration, each mouse was gently placed in a cylindrical pool, and activity was measured for 3 min. Afterward immobility time was calculated. […] The solvent used was a 0.5% aqueous solution of methylcellulose. The statistical analysis was carried out between the solvent administered group and the drug administered groups, using Dunnett's test.

[3] = test system: phencyclidine induced prolonged finding latency; assay: Water finding task in mice after neonatal treatment with phencyclidine; assay type: in vivo, male ddY mice; conditions: mouse; for phencyclidine induced prolonged finding latency improving action (in words): oral administration; for Minimum effective dose (mg/kg p.o.) (Example 4): smallest oral dose giving significantly short finding latency vs solvent group, as free form
Experimental: Verification of the therapeutic effect on schizophrenia was carried out using a water finding task in mice after neonatal treatment with phencyclidine. […] In addition, it has been reported that chronic treatment of PCP prolonged finding latency in the water-finding task (Mouri et al., 2007, Mol. Pharmacol., 180:152-60, herein incorporated by reference). Finding latency in the water-finding task provides a measure of latent learning in animals, which is thought to reflect attention. Attention is one of the most important domain of cognitive impairments in schizophrenia, we could evaluate the efficacy of drugs for cognitive impairments in schizophrenia using this task. Briefly, male ddY mice subcutaneously received PCP at a dose of 15 mg/kg or saline on postnatal day 7, 9 and 11. During the adult 7 weeks old, test compounds were orally administered to animals and 60 minutes later, the animals were placed in one corner of the open field and allowed to freely explore the training apparatus for 3 min. Immediately after the training trial, the animals were returned to their home cage and deprived of water until the test trial the next day. In the test trial, the mice were again placed individually in the test apparatus. The time between entering the alcove and drinking the water was measured. […] The solvent used was a 0.5% aqueous solution of methylcellulose. The statistical analysis was carried out between the solvent administered group and the drug administered groups, using Dunnett's test.

SMILES	IC50 (BEC1 potassium channel)	Minimum effective dose (mg/kg p.o.) (Example 2) [1]	further results
COc1ccc(Nc2nc(NCc3ncccn3)nc(Nc3ccc(F)cc3)n2)cc1 [Compound 3, N-(4-fluorophenyl)-N′-(4-methoxyphenyl)-N″-(pyrimidin-2-ylmethyl)-1,3,5-triazine-2,4,6-triamine]	0.092 µM	0.03 mg/kg p.o.	–
Fc1ccc(Nc2nc(NCc3ncccn3)nc(Nc3ccc(F)cc3)n2)cc1 (as salt: HCl) [Compound 2a, N,N′-bis(4-fluorophenyl)-N″-(pyrimidin-2-ylmethyl)-1,3,5-triazine-2,4,6-triamine]	–	–	melting point: 183 to 186 °C
COc1ccc(Nc2nc(NCc3ccnc(F)c3)nc(Nc3ccc(F)cc3)n2)cc1 [Compound 8, N-(4-fluorophenyl)-N′-[(2-fluoro-4-pyridyl)methyl]-N″-(4-methoxyphenyl)-1,3,5-triazine-2,4,6-triamine hydrochloride]	0.17 µM	–	–
Fc1ccc(Nc2nc(NCc3ncccn3)nc(Nc3ccc(F)cc3)n2)cc1 [Compound 2b, N,N′-bis(4-fluorophenyl)-N″-(pyrimidin-2-ylmethyl)-1,3,5-triazine-2,4,6-triamine]	–	–	phencyclidine induced prolonged immobility improving action (in words) [2]: suppressed phencyclidine induced prolongation of immobility time; Minimum effective dose (mg/kg p.o.) (Example 3) [2]: 0.01 mg/kg p.o.; phencyclidine induced prolonged finding latency improving action (in words) [3]: suppressed phencyclidine induced prolongation of finding latency; Minimum effective dose (mg/kg p.o.) (Example 4) [3]: 0.01 mg/kg p.o.
Cl.Fc1ccc(Nc2nc(NCc3ccnc(F)c3)nc(Nc3ccccc3)n2)cc1 [Compound 5, N-(4-fluorophenyl)-N′-[(2-fluoro-4-pyridyl)methyl]-N″-phenyl-1,3,5-triazine-2,4,6-triamine hydrochloride]	–	1.0 mg/kg p.o.	–
COc1cccc(Nc2nc(NCc3ccnc(F)c3)nc(Nc3ccc(F)cc3)n2)c1 [Compound 10, N-(4-fluorophenyl)-N′-[(2-fluoro-4-pyridyl)methyl]-N″-(3-methoxyphenyl)-1,3,5-triazine-2,4,6-triamine hydrochloride]	0.25 µM	–	–
Fc1ccc(Nc2nc(NCc3ccncn3)nc(Nc3ccc(F)cc3)n2)cc1 [Compound 4, N,N′-bis(4-fluorophenyl)-N″-(pyrimidin-4-ylmethyl)-1,3,5-triazine-2,4,6-triamine]	0.058 µM	0.01 mg/kg p.o.	–
Fc1ccc(Nc2nc(NCc3ncccn3)nc(Nc3ccc(F)cc3)n2)cc1 [Compound 2a, N,N′-bis(4-fluorophenyl)-N″-(pyrimidin-2-ylmethyl)-1,3,5-triazine-2,4,6-triamine]	0.065 µM	0.03 mg/kg p.o.	–
Fc1ccc(Nc2nc(NCc3ncccn3)nc(Nc3ccccc3)n2)cc1 [Compound 1, N-(4-fluorophenyl)-N′-phenyl-N″-(pyrimidin-2-ylmethyl)-1,3,5-triazine-2,4,6-triamine]	0.077 µM	0.1 mg/kg p.o.	phencyclidine induced prolonged immobility improving action (in words) [2]: suppressed phencyclidine induced prolongation of immobility time; Minimum effective dose (mg/kg p.o.) (Example 3) [2]: 0.03 mg/kg p.o.; phencyclidine induced prolonged finding latency improving action (in words) [3]: suppressed phencyclidine induced prolongation of finding latency; Minimum effective dose (mg/kg p.o.) (Example 4) [3]: 0.03 mg/kg p.o.
Cc1ccc(Nc2nc(NCc3ccnc(F)c3)nc(Nc3ccc(F)cc3)n2)cc1 [Compound 7, N-(4-fluorophenyl)-N′-[(2-fluoro-4-pyridyl)methyl]-N″-(4-methylphenyl)-1,3,5-triazine-2,4,6-triamine hydrochloride]	0.24 µM	–	–
